Assay results reported in patent US8901146B2, “Aminoalkylpyrimidine derivatives as histamine H4 receptor antagonists” (Medicis Pharmaceutical Corporation, priority 2009, dated 2014).

Tested on: Male BALB/c mice
Assay: Murine atopic dermatitis model by multiple oxazolone challenges
Assay type: in vivo
Conditions: result in words
Protocol: Murine Atopic Dermatitis Model by Multiple Oxazolone Challenges
Method: Male BALB/c mice (n=5-7 per group) were sensitised on Day 1 by the topical application of 50 μL of 1% oxazolone in acetone/olive oil (4:1) on the abdominal skin. On days 8, 10, 12, 15, 17, 19, 22, 24 and 26, animals received repeated challenges with 25 μL of 0.2% oxazolone, applied topically on the inner side of their right ear. On days 8-26, 25 μL of a solution of the test compound (prepared by dissolving compound in acetone/olive oil 4:1 and heating) at the desired concentration were administered on the outer side of the right ears. On days 12, 19 and 26, right ear thickness was determined with a calliper one hour after oxazolone application.

CNC1CN(c2cc(CNCC3CC3)nc(N)n2)C1 [Example 1b, 4-((Cyclopropylmethylamino)methyl)-6-(3-(methylamino)azetidin-1-yl)pyrimidin-2-amine]
in vivo activity in the atopic dermatitis model of example 10: outstanding in vivo activity

CNC1CN(c2cc(CNC3CCCC3)nc(N)n2)C1 [Example 1t, 4-((Cyclopentylamino)methyl)-6-(3-(methylamino)azetidin-1-yl)pyrimidin-2-amine]
in vivo activity in the atopic dermatitis model of example 10: outstanding in vivo activity
